Data from PMC3968014, “Design and Synthesis of a Library of Lead-Like 2,4-Bisheterocyclic Substituted Thiophenes as Selective Dyrk/Clk Inhibitors” (PLoS ONE, 2014).
Values joined by “and” are separate entries in the source; they are usually repeats but may differ in a detail not shown here. Equal values may be shown once. One block for each molecule: values may come before it.

Columns and labels:
CDK5 = target: T1, CDK5 (Homo sapiens, UniProt Q00535); experiment: Selectivity panel CDK5; assay type: biochemical; conditions: 5 µM inhibitor
T1 construct: purchased Life Technologies (Invitrogen SelectScreen); Dyrk1A, Dyrk2 and CK2α in-house or gifts

HIPK1 = target: T2, HIPK1 (Homo sapiens, UniProt Q86Z02); experiment: Selectivity panel HIPK1; assay type: biochemical; conditions: 5 µM inhibitor
T2 construct: purchased Life Technologies (Invitrogen SelectScreen); Dyrk1A, Dyrk2 and CK2α in-house or gifts

Dyrk2 = target: T3, Dyrk2 (Homo sapiens, UniProt Q92630); experiment: Dyrk2 kinase assay (32P-ATP, Woodtide); assay type: biochemical; conditions: for IC50: 100 µM ATP, read-out: IC50 Dyrk2; for inhibition at 5 µM: read-out: percentage of inhibition Dyrk2
T3 construct: made in house; host or cells: Escherichia coli BL21(DE3) with pRARE; plasmid pGEX-2TK-Dyrk2 (gift from W. Becker, Aachen)
T3 sequence (Q92630 1-601): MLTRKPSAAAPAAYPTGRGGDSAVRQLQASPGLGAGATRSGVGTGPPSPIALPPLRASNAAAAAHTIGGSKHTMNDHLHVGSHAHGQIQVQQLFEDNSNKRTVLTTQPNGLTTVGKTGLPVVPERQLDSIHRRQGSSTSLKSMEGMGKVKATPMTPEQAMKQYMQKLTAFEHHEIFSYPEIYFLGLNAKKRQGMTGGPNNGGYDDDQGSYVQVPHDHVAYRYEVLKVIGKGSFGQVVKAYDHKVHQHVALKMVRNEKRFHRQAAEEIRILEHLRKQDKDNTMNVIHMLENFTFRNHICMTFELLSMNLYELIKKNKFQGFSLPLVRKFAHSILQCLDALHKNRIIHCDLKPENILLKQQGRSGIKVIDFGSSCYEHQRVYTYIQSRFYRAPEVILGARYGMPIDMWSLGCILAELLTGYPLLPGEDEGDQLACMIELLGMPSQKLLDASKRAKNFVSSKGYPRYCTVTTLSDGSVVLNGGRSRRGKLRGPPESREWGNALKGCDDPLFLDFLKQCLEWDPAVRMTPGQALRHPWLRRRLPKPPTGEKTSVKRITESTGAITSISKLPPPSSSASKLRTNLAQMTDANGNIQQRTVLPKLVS

ROS = target: T4, ROS (Homo sapiens, UniProt P08922); experiment: Selectivity panel ROS; assay type: biochemical; conditions: 5 µM inhibitor
T4 construct: purchased Life Technologies (Invitrogen SelectScreen); Dyrk1A, Dyrk2 and CK2α in-house or gifts

PKCβ = target: T5, PKCβ (Homo sapiens, UniProt P05771); experiment: Selectivity panel PKCβ; assay type: biochemical; conditions: 5 µM inhibitor
T5 construct: purchased Life Technologies (Invitrogen SelectScreen); Dyrk1A, Dyrk2 and CK2α in-house or gifts

MARK1 (MARK) = target: T6, MARK1 (MARK) (Homo sapiens, UniProt Q9P0L2); experiment: Selectivity panel MARK1; assay type: biochemical; conditions: 5 µM inhibitor
T6 construct: purchased Life Technologies (Invitrogen SelectScreen); Dyrk1A, Dyrk2 and CK2α in-house or gifts

TEK (Tie2) = target: T7, TEK (Tie2) (Homo sapiens, UniProt Q02763); experiment: Selectivity panel TEK; assay type: biochemical; conditions: 5 µM inhibitor
T7 construct: purchased Life Technologies (Invitrogen SelectScreen); Dyrk1A, Dyrk2 and CK2α in-house or gifts

TNK2 (ACK) = target: T8, TNK2 (ACK) (Homo sapiens, UniProt Q07912); experiment: Selectivity panel TNK2; assay type: biochemical; conditions: 5 µM inhibitor
T8 construct: purchased Life Technologies (Invitrogen SelectScreen); Dyrk1A, Dyrk2 and CK2α in-house or gifts

EPHB3 = target: T9, EPHB3 (Homo sapiens, UniProt P54753); experiment: Selectivity panel EPHB3; assay type: biochemical; conditions: 5 µM inhibitor
T9 construct: purchased Life Technologies (Invitrogen SelectScreen); Dyrk1A, Dyrk2 and CK2α in-house or gifts

RET = target: T10, RET (Homo sapiens, UniProt P07949); experiment: Selectivity panel RET; assay type: biochemical; conditions: 5 µM inhibitor
T10 construct: purchased Life Technologies (Invitrogen SelectScreen); Dyrk1A, Dyrk2 and CK2α in-house or gifts

DYRK4 = target: T11, DYRK4 (Homo sapiens, UniProt Q9NR20); experiment: Selectivity panel DYRK4; assay type: biochemical; conditions: 5 µM inhibitor
T11 construct: purchased Life Technologies (Invitrogen SelectScreen); Dyrk1A, Dyrk2 and CK2α in-house or gifts

CDK2/cyclin A = target: T12, CDK2/cyclin A (Homo sapiens, UniProt P24941); experiment: Selectivity panel CDK2/cyclin A; assay type: biochemical; conditions: 5 µM inhibitor
T12 construct: purchased Life Technologies (Invitrogen SelectScreen); Dyrk1A, Dyrk2 and CK2α in-house or gifts

ZAP70 = target: T13, ZAP70 (Homo sapiens, UniProt P43403); experiment: Selectivity panel ZAP70; assay type: biochemical; conditions: 5 µM inhibitor
T13 construct: purchased Life Technologies (Invitrogen SelectScreen); Dyrk1A, Dyrk2 and CK2α in-house or gifts

MAPKAPK2 = target: T14, MAPKAPK2 (Homo sapiens, UniProt P49137); experiment: Selectivity panel MAPKAPK2; assay type: biochemical; conditions: 5 µM inhibitor
T14 construct: purchased Life Technologies (Invitrogen SelectScreen); Dyrk1A, Dyrk2 and CK2α in-house or gifts

AMPK A1/B1/G1 = target: T15, AMPK A1/B1/G1 (Homo sapiens, UniProt Q13131); experiment: Selectivity panel AMPK; assay type: biochemical; conditions: 5 µM inhibitor
T15 construct: purchased Life Technologies (Invitrogen SelectScreen); Dyrk1A, Dyrk2 and CK2α in-house or gifts

U2OS osteosarcoma cells = experiment: Caspase-3 Assay (Caspase-Glo 3/7); assay type: cell-based; conditions: starved U2OS cells, 48 hours, vs DMSO control
Protocol: U2OS osteosarcoma cells were seeded in a 96 well flat bottom plate (15*10^3 cells/well). […] The induction of caspase-3/7 activity was measured using the Promega Caspase-Glo 3/7 assay system (Promega, LOT 0000054568). The resulting luciferase reaction signals that are proportional to the caspase induction were measured in a POLARstar plate reader (BMG Labtech, Offenburg, Germany). […] Values obtained for different compound concentrations were compared using the two-sided Student's t test; levels of significance thus obtained are indicated by asterisks.

CLK2 = target: T16, CLK2 (Homo sapiens, UniProt P49760); experiment: Selectivity panel CLK2; assay type: biochemical; conditions: 5 µM inhibitor
T16 construct: purchased Life Technologies (Invitrogen SelectScreen); Dyrk1A, Dyrk2 and CK2α in-house or gifts

MAPK10 (JNK3) = target: T17, MAPK10 (JNK3) (Homo sapiens, UniProt P53779); experiment: Selectivity panel MAPK10; assay type: biochemical; conditions: 5 µM inhibitor
T17 construct: purchased Life Technologies (Invitrogen SelectScreen); Dyrk1A, Dyrk2 and CK2α in-house or gifts

SGK (SGK1) = target: T18, SGK (SGK1) (Homo sapiens, UniProt O00141); experiment: Selectivity panel SGK; assay type: biochemical; conditions: 5 µM inhibitor
T18 construct: purchased Life Technologies (Invitrogen SelectScreen); Dyrk1A, Dyrk2 and CK2α in-house or gifts

AXL = target: T19, AXL (Homo sapiens, UniProt P30530); experiment: Selectivity panel AXL; assay type: biochemical; conditions: 5 µM inhibitor
T19 construct: purchased Life Technologies (Invitrogen SelectScreen); Dyrk1A, Dyrk2 and CK2α in-house or gifts

PRKACA (PKA) = target: T20, PRKACA (PKA) (Homo sapiens, UniProt P17612); experiment: Selectivity panel PRKACA; assay type: biochemical; conditions: 5 µM inhibitor
T20 construct: purchased Life Technologies (Invitrogen SelectScreen); Dyrk1A, Dyrk2 and CK2α in-house or gifts

MKNK1 (MNK1) = target: T21, MKNK1 (MNK1) (Homo sapiens, UniProt Q9BUB5); experiment: Selectivity panel MKNK1; assay type: biochemical; conditions: 5 µM inhibitor
T21 construct: purchased Life Technologies (Invitrogen SelectScreen); Dyrk1A, Dyrk2 and CK2α in-house or gifts

RPS6KA5 (MSK1) = target: T22, RPS6KA5 (MSK1) (Homo sapiens, UniProt O75582); experiment: Selectivity panel RPS6KA5; assay type: biochemical; conditions: 5 µM inhibitor
T22 construct: purchased Life Technologies (Invitrogen SelectScreen); Dyrk1A, Dyrk2 and CK2α in-house or gifts

[1] = target: T23, (Homo sapiens, UniProt Q9UEW8); experiment: Selectivity panel PASK (STLK3); assay type: biochemical; conditions: 5 µM inhibitor; listed under STE
T23 construct: purchased Life Technologies (Invitrogen SelectScreen); Dyrk1A, Dyrk2 and CK2α in-house or gifts

EEF2K = target: T24, EEF2K (Homo sapiens, UniProt O00418); experiment: Selectivity panel EEF2K; assay type: biochemical; conditions: 5 µM inhibitor
T24 construct: purchased Life Technologies (Invitrogen SelectScreen); Dyrk1A, Dyrk2 and CK2α in-house or gifts

PRKCZ (PKC zeta) = target: T25, PRKCZ (PKC zeta) (Homo sapiens, UniProt Q05513); experiment: Selectivity panel PRKCZ; assay type: biochemical; conditions: 5 µM inhibitor
T25 construct: purchased Life Technologies (Invitrogen SelectScreen); Dyrk1A, Dyrk2 and CK2α in-house or gifts

MYLK2 (skMLCK) = target: T26, MYLK2 (skMLCK) (Homo sapiens, UniProt Q9H1R3); experiment: Selectivity panel MYLK2; assay type: biochemical; conditions: 5 µM inhibitor
T26 construct: purchased Life Technologies (Invitrogen SelectScreen); Dyrk1A, Dyrk2 and CK2α in-house or gifts

ROCK2 = target: T27, ROCK2 (Homo sapiens, UniProt O75116); experiment: Selectivity panel ROCK2; assay type: biochemical; conditions: 5 µM inhibitor
T27 construct: purchased Life Technologies (Invitrogen SelectScreen); Dyrk1A, Dyrk2 and CK2α in-house or gifts

PHKG2 = target: T28, PHKG2 (Homo sapiens, UniProt P15735); experiment: Selectivity panel PHKG2; assay type: biochemical; conditions: 5 µM inhibitor
T28 construct: purchased Life Technologies (Invitrogen SelectScreen); Dyrk1A, Dyrk2 and CK2α in-house or gifts

MAPK8 (JNK1) = target: T29, MAPK8 (JNK1) (Homo sapiens, UniProt P45983); experiment: Selectivity panel MAPK8; assay type: biochemical; conditions: 5 µM inhibitor
T29 construct: purchased Life Technologies (Invitrogen SelectScreen); Dyrk1A, Dyrk2 and CK2α in-house or gifts

T1 sequence (Q00535 whole entry): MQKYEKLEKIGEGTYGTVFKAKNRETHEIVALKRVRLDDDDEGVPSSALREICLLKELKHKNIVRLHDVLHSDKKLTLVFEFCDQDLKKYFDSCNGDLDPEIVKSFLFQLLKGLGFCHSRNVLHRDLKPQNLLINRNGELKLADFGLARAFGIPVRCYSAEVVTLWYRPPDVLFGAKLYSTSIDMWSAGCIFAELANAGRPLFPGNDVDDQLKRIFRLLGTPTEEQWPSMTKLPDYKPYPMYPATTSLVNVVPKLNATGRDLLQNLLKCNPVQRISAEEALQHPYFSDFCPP
T1 sequence (Q15078 whole entry partner): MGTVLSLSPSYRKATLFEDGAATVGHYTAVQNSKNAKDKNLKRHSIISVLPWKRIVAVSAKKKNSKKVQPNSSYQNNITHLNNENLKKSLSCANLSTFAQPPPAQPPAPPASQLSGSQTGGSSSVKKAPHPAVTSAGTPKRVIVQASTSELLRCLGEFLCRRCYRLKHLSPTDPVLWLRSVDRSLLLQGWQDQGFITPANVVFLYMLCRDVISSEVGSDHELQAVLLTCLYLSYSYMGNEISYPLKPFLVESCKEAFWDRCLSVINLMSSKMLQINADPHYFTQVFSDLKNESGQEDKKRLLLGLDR
T2 sequence (Q86Z02 whole entry): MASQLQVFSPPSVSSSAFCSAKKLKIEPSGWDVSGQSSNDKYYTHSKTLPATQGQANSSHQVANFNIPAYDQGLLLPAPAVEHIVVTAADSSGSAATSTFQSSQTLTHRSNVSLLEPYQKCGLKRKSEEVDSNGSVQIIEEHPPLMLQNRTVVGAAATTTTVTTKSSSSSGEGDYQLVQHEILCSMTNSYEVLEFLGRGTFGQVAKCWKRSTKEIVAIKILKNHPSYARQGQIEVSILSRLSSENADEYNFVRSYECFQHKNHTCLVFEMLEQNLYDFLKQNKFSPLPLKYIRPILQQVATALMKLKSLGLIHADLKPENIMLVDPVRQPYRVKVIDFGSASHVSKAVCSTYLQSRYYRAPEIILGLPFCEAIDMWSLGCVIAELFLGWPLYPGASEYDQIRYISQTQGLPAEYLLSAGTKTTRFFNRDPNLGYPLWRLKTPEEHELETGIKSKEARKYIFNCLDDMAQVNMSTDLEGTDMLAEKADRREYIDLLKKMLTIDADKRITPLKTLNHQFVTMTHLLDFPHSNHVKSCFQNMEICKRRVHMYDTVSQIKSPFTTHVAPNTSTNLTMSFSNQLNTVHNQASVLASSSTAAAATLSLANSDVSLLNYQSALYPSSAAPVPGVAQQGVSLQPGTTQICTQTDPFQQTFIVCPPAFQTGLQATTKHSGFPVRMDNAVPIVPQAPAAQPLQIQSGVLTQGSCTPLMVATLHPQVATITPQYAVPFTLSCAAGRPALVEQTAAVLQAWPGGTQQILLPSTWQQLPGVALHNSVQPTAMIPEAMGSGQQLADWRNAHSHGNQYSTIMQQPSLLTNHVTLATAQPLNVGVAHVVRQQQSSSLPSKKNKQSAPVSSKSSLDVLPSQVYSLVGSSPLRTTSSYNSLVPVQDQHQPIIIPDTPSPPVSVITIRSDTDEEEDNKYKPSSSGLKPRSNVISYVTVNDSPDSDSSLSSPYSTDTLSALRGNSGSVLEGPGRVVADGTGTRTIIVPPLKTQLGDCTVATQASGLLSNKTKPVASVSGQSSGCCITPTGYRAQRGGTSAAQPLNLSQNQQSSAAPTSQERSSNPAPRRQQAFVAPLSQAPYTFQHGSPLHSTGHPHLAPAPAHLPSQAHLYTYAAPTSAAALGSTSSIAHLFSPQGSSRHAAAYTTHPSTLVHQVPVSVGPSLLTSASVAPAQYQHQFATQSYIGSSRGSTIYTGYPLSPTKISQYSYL
T4 sequence (P08922 28-2347): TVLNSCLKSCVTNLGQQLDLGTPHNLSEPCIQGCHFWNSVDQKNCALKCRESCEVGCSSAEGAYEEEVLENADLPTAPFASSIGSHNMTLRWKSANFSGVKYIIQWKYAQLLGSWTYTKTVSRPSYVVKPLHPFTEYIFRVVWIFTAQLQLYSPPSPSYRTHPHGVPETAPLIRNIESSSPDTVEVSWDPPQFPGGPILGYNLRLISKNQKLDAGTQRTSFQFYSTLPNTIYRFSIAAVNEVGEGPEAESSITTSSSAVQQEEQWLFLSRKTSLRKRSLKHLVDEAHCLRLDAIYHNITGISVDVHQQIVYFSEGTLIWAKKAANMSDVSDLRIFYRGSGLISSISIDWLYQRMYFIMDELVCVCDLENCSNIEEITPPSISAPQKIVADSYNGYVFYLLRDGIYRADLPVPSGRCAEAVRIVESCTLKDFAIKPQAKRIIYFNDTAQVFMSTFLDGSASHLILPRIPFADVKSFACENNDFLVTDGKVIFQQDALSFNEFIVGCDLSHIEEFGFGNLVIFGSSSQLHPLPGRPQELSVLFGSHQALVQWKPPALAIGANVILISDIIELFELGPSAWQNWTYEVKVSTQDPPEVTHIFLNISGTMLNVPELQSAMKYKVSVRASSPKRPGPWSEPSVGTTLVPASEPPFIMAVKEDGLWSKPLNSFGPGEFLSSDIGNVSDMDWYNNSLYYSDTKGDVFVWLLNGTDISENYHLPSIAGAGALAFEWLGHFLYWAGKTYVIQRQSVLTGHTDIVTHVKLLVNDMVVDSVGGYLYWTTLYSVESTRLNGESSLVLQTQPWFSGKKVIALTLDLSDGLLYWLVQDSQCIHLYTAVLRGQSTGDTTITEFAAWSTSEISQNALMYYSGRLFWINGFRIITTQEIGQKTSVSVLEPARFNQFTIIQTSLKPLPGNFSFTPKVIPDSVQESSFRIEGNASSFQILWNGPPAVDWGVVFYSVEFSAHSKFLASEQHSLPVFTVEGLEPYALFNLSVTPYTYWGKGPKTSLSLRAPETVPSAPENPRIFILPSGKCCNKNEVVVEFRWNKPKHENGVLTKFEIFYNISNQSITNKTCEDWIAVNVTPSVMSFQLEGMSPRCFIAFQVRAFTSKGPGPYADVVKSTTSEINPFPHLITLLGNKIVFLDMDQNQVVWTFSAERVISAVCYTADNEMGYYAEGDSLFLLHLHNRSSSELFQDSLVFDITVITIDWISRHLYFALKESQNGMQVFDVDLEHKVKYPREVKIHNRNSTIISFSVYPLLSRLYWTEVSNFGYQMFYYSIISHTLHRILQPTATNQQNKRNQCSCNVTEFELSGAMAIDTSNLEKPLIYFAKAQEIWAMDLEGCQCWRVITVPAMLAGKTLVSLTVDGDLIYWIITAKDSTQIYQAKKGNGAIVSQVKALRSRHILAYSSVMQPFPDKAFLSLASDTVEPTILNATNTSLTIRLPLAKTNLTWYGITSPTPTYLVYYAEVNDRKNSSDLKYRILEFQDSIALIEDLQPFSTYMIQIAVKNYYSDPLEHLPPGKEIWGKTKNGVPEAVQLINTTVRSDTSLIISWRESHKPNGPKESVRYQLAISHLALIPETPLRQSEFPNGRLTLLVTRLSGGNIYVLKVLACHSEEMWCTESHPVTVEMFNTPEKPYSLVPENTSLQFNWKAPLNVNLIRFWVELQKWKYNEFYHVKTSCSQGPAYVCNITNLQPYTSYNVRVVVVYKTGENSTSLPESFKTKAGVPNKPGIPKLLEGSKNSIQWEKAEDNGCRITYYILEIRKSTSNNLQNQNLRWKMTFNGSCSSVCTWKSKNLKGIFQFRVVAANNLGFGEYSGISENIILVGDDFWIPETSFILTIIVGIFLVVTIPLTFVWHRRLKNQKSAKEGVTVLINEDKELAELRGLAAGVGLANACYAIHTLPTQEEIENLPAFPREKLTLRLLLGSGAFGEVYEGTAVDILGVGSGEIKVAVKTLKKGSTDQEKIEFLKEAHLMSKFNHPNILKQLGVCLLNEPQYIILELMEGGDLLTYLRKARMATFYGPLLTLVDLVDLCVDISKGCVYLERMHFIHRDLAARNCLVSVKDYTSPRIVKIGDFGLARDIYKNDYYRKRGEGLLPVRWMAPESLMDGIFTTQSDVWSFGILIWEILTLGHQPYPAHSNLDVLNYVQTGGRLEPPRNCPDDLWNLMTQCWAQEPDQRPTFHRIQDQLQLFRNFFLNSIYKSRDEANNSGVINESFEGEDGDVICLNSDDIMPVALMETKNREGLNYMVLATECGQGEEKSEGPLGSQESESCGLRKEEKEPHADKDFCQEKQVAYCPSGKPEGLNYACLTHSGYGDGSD
T5 sequence (P05771 whole entry): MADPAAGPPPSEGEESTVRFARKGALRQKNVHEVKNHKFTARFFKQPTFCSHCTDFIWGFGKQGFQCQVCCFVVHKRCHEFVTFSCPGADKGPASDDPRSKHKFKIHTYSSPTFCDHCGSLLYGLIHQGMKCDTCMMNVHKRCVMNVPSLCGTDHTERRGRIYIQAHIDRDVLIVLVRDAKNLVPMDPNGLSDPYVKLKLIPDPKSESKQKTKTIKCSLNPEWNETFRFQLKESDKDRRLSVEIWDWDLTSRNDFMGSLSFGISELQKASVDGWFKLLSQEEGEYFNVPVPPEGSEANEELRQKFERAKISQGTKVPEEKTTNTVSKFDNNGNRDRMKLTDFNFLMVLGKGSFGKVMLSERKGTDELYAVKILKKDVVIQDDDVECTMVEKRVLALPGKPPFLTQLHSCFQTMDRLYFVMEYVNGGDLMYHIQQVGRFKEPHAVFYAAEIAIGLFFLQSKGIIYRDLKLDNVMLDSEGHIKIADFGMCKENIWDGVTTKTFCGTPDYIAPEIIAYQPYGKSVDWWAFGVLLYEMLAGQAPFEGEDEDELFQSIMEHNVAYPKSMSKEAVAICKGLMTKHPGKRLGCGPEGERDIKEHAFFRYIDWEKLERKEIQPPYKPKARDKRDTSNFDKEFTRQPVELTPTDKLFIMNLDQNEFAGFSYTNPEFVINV

inhibition at 5 µM (CDK5): 23% | inhibition at 5 µM (HIPK1): 7% | IC50 (Dyrk2): 1.34 µM and 1.3 µM | inhibition at 5 µM (Dyrk2): 77% | inhibition at 5 µM (ROS): 2% | inhibition at 5 µM (PKCβ): -18% | melting point: 86 to 87 °C
Compound: c1cncc(-c2csc(-c3cnco3)c2)c1 [Compound 33, 3-[5-(1,3-oxazol-5-yl)thiophen-3-yl]pyridine]

Compound: c1cncc(-c2csc(-c3cncs3)c2)c1 [Compound 48, 3-[5-(1,3-thiazol-5-yl)thiophen-3-yl]pyridine]
inhibition at 5 µM (MARK1 (MARK)): 1% | inhibition at 5 µM (TEK (Tie2)): 0% | inhibition at 5 µM (TNK2 (ACK)): 8% | inhibition at 5 µM (CDK5): 44% | inhibition at 5 µM (HIPK1): 9% | inhibition at 5 µM (EPHB3): 1% | inhibition at 5 µM (RET): 1% | inhibition at 5 µM (DYRK4): 12% | inhibition at 5 µM (CDK2/cyclin A): 33% | inhibition at 5 µM (ZAP70): -1% | inhibition at 5 µM (MAPKAPK2): 2% | IC50 (Dyrk2): 0.04 µM | inhibition at 5 µM (Dyrk2): 100% | inhibition at 5 µM (AMPK A1/B1/G1): -5% | caspase-3/7 activity (U2OS osteosarcoma cells): clear increase | inhibition at 5 µM (CLK2): 78% | inhibition at 5 µM (ROS): 0% | inhibition at 5 µM (MAPK10 (JNK3)): 2% | inhibition at 5 µM (SGK (SGK1)): 22% | inhibition at 5 µM (AXL): -11% | inhibition at 5 µM (PRKACA (PKA)): 3% | inhibition at 5 µM (MKNK1 (MNK1)): 47% | inhibition at 5 µM (RPS6KA5 (MSK1)): 10% | inhibition at 5 µM (PKCβ): 1% | melting point: 69 to 70 °C | inhibition at 5 µM [1]: 27% | inhibition at 5 µM (EEF2K): 1% | inhibition at 5 µM (PRKCZ (PKC zeta)): -25% | inhibition at 5 µM (MYLK2 (skMLCK)): 31% | inhibition at 5 µM (ROCK2): 9% | inhibition at 5 µM (PHKG2): -11% | inhibition at 5 µM (MAPK8 (JNK1)): 5%
